Reference: PubChem BioAssay AID1613 (NINDS Approved Drug Screening Program, 2009)

Test system: GFP-SOD1 mutant aggregation, cell imaging
Experiment: inhibitors of mutant SOD1 aggregation, cell-based (AID 1613)

Question: `CCN(CC)CCNc1ccc(CO)c2sc3ccccc3c(=O)c12` was tested. Which EC50 did it give?
Answer: Its EC50 is 20 µM.

Question: For `C[n+]1c2cc(N)ccc2cc2ccc(N)cc21`, which EC50 is on record?
Answer: The EC50 was 10 µM.

Question: Which EC50 does the source give for `CC[C@@]1(O)C(=O)OCc2c1cc1n(c2=O)Cc2cc3ccccc3nc2-1` here?
Answer: The EC50 was 15 µM.

Question: How did the EC50 turn out when `CC(=O)O[C@H]1C[C@H](O[C@H]2[C@@H](O)C[C@H](O[C@H]3[C@@H](O)C[C@H](O[C@H]4CC[C@@]5(C)C(CCC6C5C[C@@H](O)[C@]5(C)[C@@H](C7=CC(=O)OC7)CC[C@]65O)C4)O[C@@H]3C)O[C@@H]2C)O[C@H](C)[C@H]1O[C@@H]1O[C@H](CO)[C@@H](O)[C@H](O)[C@H]1O` (some centres undefined) was run?
Answer: The EC50 was 5 µM.

Question: With `C[C@]12CCC3C(CC[C@]4(O)C[C@@H](O)CC[C@]34C=O)[C@@]1(O)CCC2C1=CC(=O)OC1` (some centres undefined) as the compound, how does the EC50 read?
Answer: The EC50 was 5 µM.

Question: For `COc1ccc(C[C@H]2NC[C@H](O)[C@H]2OC(C)=O)cc1`, which EC50 is on record?
Answer: Its EC50 is 2 µM.

Question: With `C[C@H]1O[C@@H](O[C@H]2[C@@H](O)C[C@H](O[C@H]3[C@@H](O)C[C@H](O[C@H]4CC[C@]5(C)C6C[C@@H](O)[C@]7(C)[C@@H](C8=CC(=O)OC8)CC[C@]7(O)C6CC[C@@H]5C4)O[C@@H]3C)O[C@@H]2C)C[C@H](O)[C@@H]1O` (some centres undefined) as the compound, how does the EC50 read?
Answer: The EC50 was 20 µM.

Question: With `CC(=O)O[C@H]1C(=O)[C@@]2(C)C([C@H](OC(=O)c3ccccc3)[C@]3(O)C[C@H](OC(=O)[C@H](O)[C@@H](NC(=O)c4ccccc4)c4ccccc4)C(C)=C1C3(C)C)[C@]1(OC(C)=O)CO[C@@H]1C[C@@H]2O` (some centres undefined) as the compound, how does the EC50 read?
Answer: Its EC50 is 5 µM.

Question: `C[C@H]1O[C@@H](O[C@H]2[C@@H](O)C[C@H](O[C@H]3[C@@H](O)C[C@H](O[C@H]4CC[C@]5(C)C6CC[C@]7(C)[C@@H](C8=CC(=O)OC8)CC[C@]7(O)C6CC[C@@H]5C4)O[C@@H]3C)O[C@@H]2C)C[C@H](O)[C@@H]1O` (some centres undefined) was tested. Which EC50 did it give?
Answer: The EC50 was 20 µM.

Question: Which EC50 does the source give for `CO[C@H]1[C@H](O)[C@H](O[C@H]2CC[C@]3(C)C4CC[C@]5(C)C(C6=CC(=O)OC6)CC[C@]5(O)C4CC[C@@H]3C2)O[C@@H](C)[C@@H]1O` (some centres undefined) here?
Answer: Its EC50 is 5 µM.

Question: With `CC[C@H]1CN2CCc3cc(OC)c(OC)cc3C2C[C@@H]1CC1NCCc2cc(OC)c(OC)cc21` (some centres undefined) as the compound, how does the EC50 read?
Answer: Its EC50 is 5 µM.

Question: `O=C1c2c(O)ccc(O)c2C(=O)c2c(NCCNCCO)ccc(NCCNCCO)c21` was tested. Which EC50 did it give?
Answer: The EC50 was 5 µM.

Question: Which EC50 does the source give for `CO[C@H]1[C@H](O)[C@@H](O[C@H]2CC[C@]3(C=O)C4CC[C@]5(C)[C@@H](C6=CC(=O)OC6)CC[C@]5(O)C4CC[C@@H]3C2)O[C@@H](C)[C@@H]1O` (some centres undefined) here?
Answer: The EC50 was 5 µM.

Question: How did the EC50 turn out when `C[C@@H]1C[C@@H]([C@H](O)CC2CC(=O)NC(=O)C2)C(=O)[C@@H](C)C1` was run?
Answer: The EC50 was 2 µM.
